Broadly, the IC50 is the midpoint of a concentration-inhibition curve. The term GI50 denotes the concentration at which growth is held to half of that of the control. A word on the MIC: it is the smallest concentration in the dilution series that meets the test's criterion for growth inhibition.

Here are results for one compound from patent US20110251238A1, “PPAR AGONIST COMPOSITIONS AND METHODS OF USE” (BIOPHARMED, priority 2008, published 2011).

One assay concerns B16-F10 (mouse melanoma). Description: Growth inhibition, MTT colorimetric assay, B16F10. It counts as cell-based. Particulars: Mus musculus, B16-F10, 72 h; melanoma; 3 days with drug; means of six values; unit inferred; read-out: IC50 B16F10. The method, boiled down:
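LoVo, B16-F10, U373 and U138 MG cells cultured with compounds for 3 days; proliferation inhibition read by MTT colorimetric assay. IC50 values are means of six determinations, standard errors <5% of means.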
(In general: Tetrazolium assays rely on reduction of a dye to a coloured formazan, in cell work by metabolically active cells.)

In assay [1] the test system is BxPC3 (pancreatic cancer). Description: Growth inhibition, MTT colorimetric assay, BxPC3. It counts as cell-based, human. Particulars: Homo sapiens, BXPC-3, 72 h; carcinoma; 3 days with drug; means of six values; unit inferred; read-out: IC50 BxPC3. Here is the method:
Cells are cultured at 37° C. in Falcon culture dishes, incubated at 5% CO2 in a suitable culture medium available from Invitrogen Corp. Anti-proliferative activity is determined by an MTT assay (bromide of (3-[4,5-dimethylthiazolium-yl]diphenyltetrazolium)). According to one standard protocol, absorbance is measured at 570 nm (see Dumont et al. (2007) Neoplasia 9: 766-776.
(§1) A549 (human lung adenocarcinoma epithelial), BxPC3 (pancreatic cancer), LoVo (colon cancer), MCF-7 (epithelial breast cancer), PC3 (human prostate cancer), Hs683 (human glioma), T98G (glioblastoma), U373 (human glioblastoma-astrocytoma), U138 MG (human glioma), epithelial-like), SKMEL28 (human melanoma), B16-F10 (mouse melanoma) and RhTP (rhabdomyosarcoma) cell lines were cultured in presence of the drugs for 3 days. The cytotoxic activity is expressed as (IC50). Inhibition of cell proliferation measured by the MTT colorimetric assay. The values reported in Table 4 are means of six distinct values.

The target in a further assay is T1, PPARγ (Homo sapiens, UniProt P37231).
T1 construct: endogenous in cells; host or cells: MCF-7
T1 sequence (P37231 whole entry): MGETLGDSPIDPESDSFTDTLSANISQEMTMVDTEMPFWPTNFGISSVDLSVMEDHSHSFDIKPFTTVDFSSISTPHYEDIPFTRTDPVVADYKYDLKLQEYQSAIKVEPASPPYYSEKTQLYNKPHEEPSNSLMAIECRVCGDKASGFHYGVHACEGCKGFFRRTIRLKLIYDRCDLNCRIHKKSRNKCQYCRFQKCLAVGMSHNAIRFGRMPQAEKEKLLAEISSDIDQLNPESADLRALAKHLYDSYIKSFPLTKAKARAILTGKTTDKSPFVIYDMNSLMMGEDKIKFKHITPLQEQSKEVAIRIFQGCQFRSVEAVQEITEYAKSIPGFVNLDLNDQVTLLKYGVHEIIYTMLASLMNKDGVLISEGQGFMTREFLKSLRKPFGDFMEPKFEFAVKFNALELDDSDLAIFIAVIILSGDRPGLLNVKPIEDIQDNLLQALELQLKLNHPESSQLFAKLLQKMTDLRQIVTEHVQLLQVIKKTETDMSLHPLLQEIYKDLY
Briefly: PPAR in vitro cellular (transactivation) assay in MCF-7 cells. It counts as cell-based. Here is the method: Compounds BPM18,708 and BPM19,107 were selected as representative analogues and tested in a PPAR in vitro cellular assay. Thiazolidinediones rosiglitazone and troglitazone were used as reference PPARγ agonists.
For transfection experiments, MCF-7 cells were cultured in six-well plates in 2 ml DMEM:F12 supplemented with 5% FBS. When cells were 50-60% confluent, siRNA duplexes and/or reporter gene constructs were transfected using OligofectAMINE reagent (Invitrogen). According to methods described in previous studies siRNAs were transfected in each well to give a final concentration of 70 nM. Cells were harvested in 48-56 h after transfection by manual scraping in lysis buffer (Promega). Whole cell extracts were frozen in liquid nitrogen for 30 s, vortexed by 30 s, and centrifuged to give lysates cell lysates from this experiment were analyzed for PPARγ protein by Western blot analysis. Relative intensities of the PPARγ protein were compared with a nonspecific band and results of three replicate studies were determined in the various treatment groups.
Whole cell lysates were extracted using Western sampling buffer. Protein samples were heated at 100 C for 5 min, separated on 10% SDS-PAGE and transferred to polyvinylidene difluoride (PVDF) membrane (Amersham Pharmacia Biotech, Piscataway, N.J.). […]

The subject of assay [2] is bloodstream forms of T. brucei and T. congolense. Description: Trypanocidal activity in vitro, Alamar Blue assay. It counts as cell-based, Trypanosoma brucei and T. congolense. To be noted: 48 h total incubation. The method, boiled down: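 Bloodstream-form trypanosomes exposed to compounds in H2O for 24 h, then Alamar Blue added for a further 24 h (48 h total). Absorbance read at 550 nm with 630 nm reference; duplicate wells, three repeats. HL-60 cytotoxicity run alongside: 43 h plus 5 h dye.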
Background: Alamar Blue is a resazurin reagent that responds to reducing activity.

The subject of the next assay is KaKa. Description: Growth inhibition, MTT colorimetric assay, KaKa. In kind it is cell-based. To be noted: 72 h; 3 days with drug; means of six values; unit inferred; read-out: IC50 KaKa. The method, boiled down: (§2)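 MTT colorimetric measurement of proliferation gives the IC50, averaged from six separate values. Drug exposure lasted 3 days.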
The test system of the next assay is caspases 3/7. Briefly: Caspases 3/7 activation in HL60 cells (DEVD reagent). It counts as cell-based, human. Particulars: 48 hours. An excerpt: 7223, using standard commercially available diagnostic kits (Calbiochem, USA). Assay reagents used were DEVD for caspases 3/7, […] for caspases 8, and LEHD for caspases 9. Moreover, colchicine was used as reference compound that induces this activity of caspases.

In assay [3] the test system is MCF-7 (epithelial breast cancer). Description: Growth inhibition, MTT colorimetric assay, MCF7. It counts as cell-based. To be noted: Homo sapiens, MCF7, 72 h; carcinoma; 3 days with drug; means of six values; unit inferred; read-out: IC50 MCF7. Here is the method: as §1
In the next assay the test system is GL19. Briefly: Growth inhibition, MTT colorimetric assay, GL19. It counts as cell-based. Particulars: GL19, 72 h; 3 days with drug; means of six values; unit inferred; read-out: IC50 GL19. The method, boiled down:
as §2

Converted amounts (≈) assume the structure as drawn.

With `Oc1ccc(CN(Cc2ccc(C(F)(F)F)cc2)Cc2ccc(O)c3ncccc23)c2cccnc12` [BPM18,708, 5,5′-(4-(trifluoromethyl)benzylazanediyl)bis(methylene)diquinolin-8-ol], the concentration for half-maximal inhibition (IC50) with B16-F10 (mouse melanoma) worked out at 92 nM; in assay [1], 4300 nM; in the assay with KaKa, 1580 nM; in assay [3], 34 nM; in the assay on GL19, 1240 nM. For the same compound, the “PPARγ ligand/agonist activity in transactivation assays” value at PPARγ is “ligands and agonists of PPARγ”. The GI50 in assay [2] (50% growth inhibition, read-out: GI50) worked out at 310 ± 10 nM. Moreover, the minimum inhibitory concentration (MIC) in assay [2] (lowest concentration at which all cells were killed, read-out: MIC) turned out to be 1 µM (≈ 0.489 µg/mL). The “activation of caspases 3/7” value in the assay with caspases 3/7 (0.01 μM) is “neither BPM18,708 nor BPM19,107 has an effect”; with caspases 3/7 (0.1 μM), “strong effect”; with caspases 3/7 (1 μM) it was “strong effect”.
